Measured values taken from PubChem BioAssay AID1963980 (Molecular Pharmacology Branch, DTP, NCI, 2024).

System: 475296-252-R-J1-PDC spheroid viability
Assay: Anticancer human tumor 475296-252-R-J1-PDC patient-derived rectal carcinoma cell line growth inhibition [PI3K]
Details: spheroids with HUVEC and MSC; for IC50: curve of first compound; for viability, T/C: stronger effect = lower value
In short: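 Agents were dosed from a top concentration near clinical Cmax (otherwise 10 microM) in half-log decrements, alone or combined with PI3K inhibitors. The spheroids contain tumor cells plus endothelial (HUVEC) and MSC stroma; viability is measured.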

[1] = second compound 0.0316 µM, first compound 0.0316 µM
[2] = second compound 0.0316 µM, first compound 0.1 µM
[3] = second compound 0.0316 µM, first compound 0.316 µM
[4] = second compound 0.0316 µM, first compound 1 µM
[5] = second compound 0.0316 µM, first compound 3.16 µM
[6] = second compound 0.0316 µM, first compound 10 µM
[7] = second compound 0.1 µM, first compound 0.0316 µM
[8] = second compound 0.1 µM, first compound 0.1 µM
[9] = second compound 0.1 µM, first compound 0.316 µM
[10] = second compound 0.1 µM, first compound 1 µM
[11] = second compound 0.1 µM, first compound 3.16 µM
[12] = second compound 0.1 µM, first compound 10 µM
[13] = second compound 0.316 µM, first compound 0.0316 µM
[14] = second compound 0.316 µM, first compound 0.1 µM
[15] = second compound 0.316 µM, first compound 0.316 µM
[16] = second compound 0.316 µM, first compound 1 µM
[17] = second compound 0.316 µM, first compound 3.16 µM
[18] = second compound 0.316 µM, first compound 10 µM
[19] = second compound 1 µM, first compound 0.0316 µM
[20] = second compound 1 µM, first compound 0.1 µM
[21] = second compound 1 µM, first compound 0.316 µM
[22] = second compound 1 µM, first compound 1 µM
[23] = second compound 1 µM, first compound 3.16 µM
[24] = second compound 1 µM, first compound 10 µM
[25] = second compound 3.16 µM, first compound 0.0316 µM
[26] = second compound 3.16 µM, first compound 0.1 µM
[27] = second compound 3.16 µM, first compound 0.316 µM
[28] = second compound 3.16 µM, first compound 1 µM
[29] = second compound 3.16 µM, first compound 3.16 µM
[30] = second compound 3.16 µM, first compound 10 µM
[31] = second compound 10 µM, first compound 0.0316 µM
[32] = second compound 10 µM, first compound 0.1 µM
[33] = second compound 10 µM, first compound 0.316 µM
[34] = second compound 10 µM, first compound 1 µM
[35] = second compound 10 µM, first compound 3.16 µM
[36] = second compound 10 µM, first compound 10 µM
[37] = second compound 0.0316 µM, first compound 0.00316 µM
[38] = second compound 0.0316 µM, first compound 0.01 µM
[39] = second compound 0.1 µM, first compound 0.00316 µM
[40] = second compound 0.1 µM, first compound 0.01 µM
[41] = second compound 0.316 µM, first compound 0.00316 µM
[42] = second compound 0.316 µM, first compound 0.01 µM
[43] = second compound 1 µM, first compound 0.00316 µM
[44] = second compound 1 µM, first compound 0.01 µM
[45] = second compound 3.16 µM, first compound 0.00316 µM
[46] = second compound 3.16 µM, first compound 0.01 µM
[47] = second compound 10 µM, first compound 0.00316 µM
[48] = second compound 10 µM, first compound 0.01 µM
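Further: spheroids exposed to agents for seven days before readout.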

SMILES: CC(C)NCC(C(=O)N1CCN(c2ncnc3c2C(C)CC3O)CC1)c1ccc(Cl)cc1 (stereo not drawn) + Cc1nc(NC(=O)N2CCCC2C(N)=O)sc1-c1ccnc(C(C)(C)C(F)(F)F)c1
- IC50 (second compound 0.0316 µM): > 10 µM
- IC50 (second compound 0.1 µM): > 10 µM
- IC50 (second compound 0.316 µM): > 10 µM
- IC50 (second compound 1 µM): > 10 µM
- IC50 (second compound 3.16 µM): > 10 µM
- IC50 (second compound 10 µM): > 10 µM
- viability, T/C [1]: 98%
- viability, T/C [2]: 90.3%
- viability, T/C [3]: 92%
- viability, T/C [4]: 89.3%
- viability, T/C [5]: 78.9%
- viability, T/C [6]: 70.3%
- viability, T/C [7]: 89.4%
- viability, T/C [8]: 93.3%
- viability, T/C [9]: 92.7%
- viability, T/C [10]: 80.3%
- viability, T/C [11]: 62.4%
- viability, T/C [12]: 58.2%
- viability, T/C [13]: 93.2%
- viability, T/C [14]: 95.1%
- viability, T/C [15]: 88.3%
- viability, T/C [16]: 92.5%
- viability, T/C [17]: 68.3%
- viability, T/C [18]: 58.9%
- viability, T/C [19]: 85%
- viability, T/C [20]: 92.7%
- viability, T/C [21]: 88.2%
- viability, T/C [22]: 90%
- viability, T/C [23]: 81.3%
- viability, T/C [24]: 58.7%
- viability, T/C [25]: 82.5%
- viability, T/C [26]: 96.6%
- viability, T/C [27]: 88.8%
- viability, T/C [28]: 89.4%
- viability, T/C [29]: 77.7%
- viability, T/C [30]: 65.8%
- viability, T/C [31]: 96%
- viability, T/C [32]: 81.3%
- viability, T/C [33]: 89.3%
- viability, T/C [34]: 85%
- viability, T/C [35]: 77.2%
- viability, T/C [36]: 64.3%

SMILES: CCN1CCN(Cc2ccc(Nc3ncc(F)c(-c4cc(F)c5nc(C)n(C(C)C)c5c4)n3)nc2)CC1 + Cc1nc(NC(=O)N2CCCC2C(N)=O)sc1-c1ccnc(C(C)(C)C(F)(F)F)c1
- IC50 (second compound 0.0316 µM): > 1 µM
- IC50 (second compound 0.1 µM): > 1 µM
- IC50 (second compound 0.316 µM): > 1 µM
- IC50 (second compound 1 µM): > 1 µM
- IC50 (second compound 3.16 µM): > 1 µM
- IC50 (second compound 10 µM): > 1 µM
- viability, T/C [37]: 95.8%
- viability, T/C [38]: 93.4%
- viability, T/C [1]: 107%
- viability, T/C [2]: 90%
- viability, T/C [3]: 114%
- viability, T/C [4]: 104%
- viability, T/C [39]: 95.8%
- viability, T/C [40]: 97.8%
- viability, T/C [7]: 112%
- viability, T/C [8]: 90.4%
- viability, T/C [9]: 98.8%
- viability, T/C [10]: 84.3%
- viability, T/C [41]: 107%
- viability, T/C [42]: 105%
- viability, T/C [13]: 87.6%
- viability, T/C [14]: 99.4%
- viability, T/C [15]: 98%
- viability, T/C [16]: 88.6%
- viability, T/C [43]: 81.4%
- viability, T/C [44]: 90.5%
- viability, T/C [19]: 98.7%
- viability, T/C [20]: 88.5%
- viability, T/C [21]: 89.2%
- viability, T/C [22]: 87.7%
- viability, T/C [45]: 98.2%
- viability, T/C [46]: 108%
- viability, T/C [25]: 82.5%
- viability, T/C [26]: 95%
- viability, T/C [27]: 90.7%
- viability, T/C [28]: 73.1%
- viability, T/C [47]: 93.3%
- viability, T/C [48]: 88.3%
- viability, T/C [31]: 96.7%
- viability, T/C [32]: 81.1%
- viability, T/C [33]: 90.4%
- viability, T/C [34]: 70.4%

SMILES: C[C@@H](NC(=O)c1ncnc(N)c1Cl)c1ncc(C(=O)Nc2cc(C(F)(F)F)c(Cl)cn2)s1 + Cc1nc(NC(=O)N2CCCC2C(N)=O)sc1-c1ccnc(C(C)(C)C(F)(F)F)c1
- IC50 (second compound 0.0316 µM): > 10 µM
- IC50 (second compound 0.1 µM): > 10 µM
- IC50 (second compound 0.316 µM): > 10 µM
- IC50 (second compound 1 µM): > 10 µM
- IC50 (second compound 3.16 µM): > 10 µM
- IC50 (second compound 10 µM): 7.71 µM
- viability, T/C [1]: 97.3%
- viability, T/C [2]: 82.2%
- viability, T/C [3]: 98.4%
- viability, T/C [4]: 97.1%
- viability, T/C [5]: 104%
- viability, T/C [6]: 84.1%
- viability, T/C [7]: 88.8%
- viability, T/C [8]: 85.3%
- viability, T/C [9]: 109%
- viability, T/C [10]: 91.7%
- viability, T/C [11]: 100%
- viability, T/C [12]: 95.4%
- viability, T/C [13]: 87.7%
- viability, T/C [14]: 90.5%
- viability, T/C [15]: 97%
- viability, T/C [16]: 98.9%
- viability, T/C [17]: 95.6%
- viability, T/C [18]: 79.9%
- viability, T/C [19]: 82.6%
- viability, T/C [20]: 93.7%
- viability, T/C [21]: 101%
- viability, T/C [22]: 101%
- viability, T/C [23]: 84.9%
- viability, T/C [24]: 63%
- viability, T/C [25]: 86.2%
- viability, T/C [26]: 79.4%
- viability, T/C [27]: 93.4%
- viability, T/C [28]: 75.9%
- viability, T/C [29]: 79.6%
- viability, T/C [30]: 70.5%
- viability, T/C [31]: 86.6%
- viability, T/C [32]: 77%
- viability, T/C [33]: 79.5%
- viability, T/C [34]: 69.1%
- viability, T/C [35]: 66.8%
- viability, T/C [36]: 45%

SMILES: Cn1ncnc1[C@H]1c2n[nH]c(=O)c3cc(F)cc(c23)N[C@@H]1c1ccc(F)cc1 + Cc1nc(NC(=O)N2CCCC2C(N)=O)sc1-c1ccnc(C(C)(C)C(F)(F)F)c1
- IC50 (second compound 0.0316 µM): > 0.1 µM
- IC50 (second compound 0.1 µM): > 0.1 µM
- IC50 (second compound 0.316 µM): > 0.1 µM
- IC50 (second compound 1 µM): > 0.1 µM
- IC50 (second compound 3.16 µM): > 0.1 µM
- IC50 (second compound 10 µM): > 0.1 µM
- viability, T/C (second compound 0.0316 µM, first compound 0.000316 µM): 104%
- viability, T/C (second compound 0.0316 µM, first compound 0.001 µM): 88.4%
- viability, T/C [37]: 106%
- viability, T/C [38]: 87.1%
- viability, T/C [1]: 98.8%
- viability, T/C [2]: 101%
- viability, T/C (second compound 0.1 µM, first compound 0.000316 µM): 92%
- viability, T/C (second compound 0.1 µM, first compound 0.001 µM): 87.1%
- viability, T/C [39]: 94.7%
- viability, T/C [40]: 101%
- viability, T/C [7]: 110%
- viability, T/C [8]: 103%
- viability, T/C (second compound 0.316 µM, first compound 0.000316 µM): 89.7%
- viability, T/C (second compound 0.316 µM, first compound 0.001 µM): 92.4%
- viability, T/C [41]: 88.9%
- viability, T/C [42]: 99.6%
- viability, T/C [13]: 105%
- viability, T/C [14]: 90.8%
- viability, T/C (second compound 1 µM, first compound 0.000316 µM): 91.3%
- viability, T/C (second compound 1 µM, first compound 0.001 µM): 99.5%
- viability, T/C [43]: 101%
- viability, T/C [44]: 91.7%
- viability, T/C [19]: 92.6%
- viability, T/C [20]: 104%
- viability, T/C (second compound 3.16 µM, first compound 0.000316 µM): 85.8%
- viability, T/C (second compound 3.16 µM, first compound 0.001 µM): 90%
- viability, T/C [45]: 91.5%
- viability, T/C [46]: 87.7%
- viability, T/C [25]: 87.7%
- viability, T/C [26]: 88.6%
- viability, T/C (second compound 10 µM, first compound 0.000316 µM): 91.7%
- viability, T/C (second compound 10 µM, first compound 0.001 µM): 92.1%
- viability, T/C [47]: 84.7%
- viability, T/C [48]: 83.3%
- viability, T/C [31]: 91.3%
- viability, T/C [32]: 84.6%
